Measured values from patent publication US20240382629A1, “HETEROBIVALENT AND HOMOBIVALENT AGENTS TARGETING FIBROBLAST ACTIVATION PROTEIN ALPHA AND/OR PROSTATE-SPECIFIC MEMBRANE ANTIGEN” (The Johns Hopkins University, priority 2021, published 2024).
Several values for one entry are separate records, joined by “and”; a condition that tells them apart may be missing. Equal entries are not always repeated.

Assay: Biodistribution of representative compounds ([^18F]Sri-07-56, [^18F]Sri-07-52, [^18F]JHU1221823, [^18F]FAPI-74), tissue % ID/g with carrier or blocker
Format: in vivo, mouse
Conditions: for Bladder % ID/g / Blood % ID/g / Brain % ID/g / Fat % ID/g / Femur % ID/g / Heart % ID/g / Kidney % ID/g / Large intestine % ID/g / Liver % ID/g / Lung % ID/g / Muscle % ID/g / Pancreas % ID/g / Salivery gland % ID/g / Small intestine % ID/g / Spleen % ID/g / Stomach % ID/g / Tumor % ID/g: individual mice
Text: Biodistribution of Representative Compounds

For `N#CC1CCCN1C(=O)CNC(=O)c1ccnc2ccc(OCCCNC(=O)CCc3cn(CCC(NC(=O)c4ccc([18F])nc4)C(=O)NCCCCC(NC(=O)NC(CC(=O)O)C(=O)O)C(=O)O)nn3)cc12` (stereo not drawn) [[18F]Sri-07-52], the “Bladder % ID/g Mean” value (60 min, 20 μCi per mouse) was 1.75 % ID/g, the “Blood % ID/g Mean” value (60 min, 20 μCi per mouse) was 2.39 % ID/g and the “Brain % ID/g Mean” value (60 min, 20 μCi per mouse) was 0.09 % ID/g. The “Fat % ID/g Mean” value (60 min, 20 μCi per mouse) was 0.41 % ID/g, the “Femur % ID/g Mean” value (60 min, 20 μCi per mouse) was 2.10 % ID/g and the “Heart % ID/g Mean” value (60 min, 20 μCi per mouse) was 1.39 % ID/g. For the same molecule, the “Kidney % ID/g Mean” value (60 min, 20 μCi per mouse) was 1.21 % ID/g, the “Large intestine % ID/g Mean” value (60 min, 20 μCi per mouse) was 1.16 % ID/g and the “Liver % ID/g Mean” value (60 min, 20 μCi per mouse) was 1.07 % ID/g. For the same molecule, the “Lung % ID/g Mean” value (60 min, 20 μCi per mouse) was 1.46 % ID/g, the “Muscle % ID/g Mean” value (60 min, 20 μCi per mouse) was 1.40 % ID/g and the “Pancreas % ID/g Mean” value (60 min, 20 μCi per mouse) was 3.30 % ID/g. The “Salivary gland % ID/g Mean” value (60 min, 20 μCi per mouse) was 5.13 % ID/g, the “Small intestine % ID/g Mean” value (60 min, 20 μCi per mouse) was 1.57 % ID/g and the “Spleen % ID/g Mean” value (60 min, 20 μCi per mouse) was 0.74 % ID/g. The “Stomach % ID/g Mean” value (60 min, 20 μCi per mouse) was 0.68 % ID/g, the “Tumor % ID/g Mean” value (60 min, 20 μCi per mouse) was 2.27 % ID/g and the “Bladder % ID/g” value (60 min, 20 μCi per mouse) was 1.90 % ID/g and 1.61 % ID/g. The “Blood % ID/g” value (60 min, 20 μCi per mouse) was 2.58 % ID/g and 2.21 % ID/g, the “Brain % ID/g” value (60 min, 20 μCi per mouse) was 0.08 % ID/g and 0.11 % ID/g and the “Fat % ID/g” value (60 min, 20 μCi per mouse) was 0.53 % ID/g and 0.29 % ID/g. The “Femur % ID/g” value (60 min, 20 μCi per mouse) was 1.91 % ID/g and 2.29 % ID/g, the “Heart % ID/g” value (60 min, 20 μCi per mouse) was 1.36 % ID/g and 1.42 % ID/g and the “Kidney % ID/g” value (60 min, 20 μCi per mouse) was 1.18 % ID/g and 1.23 % ID/g. For the same molecule, the “Large intestine % ID/g” value (60 min, 20 μCi per mouse) was 1.11 % ID/g and 1.21 % ID/g, the “Liver % ID/g” value (60 min, 20 μCi per mouse) was 1.11 % ID/g and 1.04 % ID/g and the “Lung % ID/g” value (60 min, 20 μCi per mouse) was 1.60 % ID/g and 1.32 % ID/g. The “Muscle % ID/g” value (60 min, 20 μCi per mouse) was 1.43 % ID/g and 1.38 % ID/g, the “Pancreas % ID/g” value (60 min, 20 μCi per mouse) was 3.34 % ID/g and 3.27 % ID/g and the “Salivery gland % ID/g” value (60 min, 20 μCi per mouse) was 4.35 % ID/g and 5.90 % ID/g. The “Small intestine % ID/g” value (60 min, 20 μCi per mouse) was 1.56 % ID/g and 1.57 % ID/g, the “Spleen % ID/g” value (60 min, 20 μCi per mouse) was 0.72 % ID/g and 0.77 % ID/g and the “Stomach % ID/g” value (60 min, 20 μCi per mouse) was 0.66 % ID/g and 0.69 % ID/g. For the same molecule, the “Tumor % ID/g” value (60 min, 20 μCi per mouse) was 2.44 % ID/g and 2.10 % ID/g.
In the case of `N#CC1CCCN1C(=O)CNC(=O)c1ccnc2ccc(OCCCNC(=O)CCc3cn(CCC(NC(=O)c4ccc([18F])nc4)C(=O)NCCCCC(NC(=O)NC(CC(=O)O)C(=O)O)C(=O)O)nn3)cc12` (stereo not drawn) [[^18F]Sri-07-52], the “Bladder % ID/g Mean” value (30 min, ~100 μCi per mouse) is reported as 1.98 % ID/g, the “Blood % ID/g Mean” value (30 min, ~100 μCi per mouse) is reported as 10.03 % ID/g and the “Brain % ID/g Mean” value (30 min, ~100 μCi per mouse) is reported as 0.21 % ID/g. For the same molecule, the “Fat % ID/g Mean” value (30 min, ~100 μCi per mouse) was 0.50 % ID/g, the “Femur % ID/g Mean” value (30 min, ~100 μCi per mouse) was 2.53 % ID/g and the “Heart % ID/g Mean” value (30 min, ~100 μCi per mouse) was 4.58 % ID/g. For the same molecule, the “Kidney % ID/g Mean” value (30 min, ~100 μCi per mouse) was 2.71 % ID/g, the “Large intestine % ID/g Mean” value (30 min, ~100 μCi per mouse) was 3.78 % ID/g and the “Liver % ID/g Mean” value (30 min, ~100 μCi per mouse) was 3.20 % ID/g. The “Lung % ID/g Mean” value (30 min, ~100 μCi per mouse) was 6.18 % ID/g, the “Muscle % ID/g Mean” value (30 min, ~100 μCi per mouse) was 2.09 % ID/g and the “Pancreas % ID/g Mean” value (30 min, ~100 μCi per mouse) was 5.86 % ID/g. For the same molecule, the “Salivary gland % ID/g Mean” value (30 min, ~100 μCi per mouse) was 13.84 % ID/g, the “Small intestine % ID/g Mean” value (30 min, ~100 μCi per mouse) was 4.36 % ID/g and the “Spleen % ID/g Mean” value (30 min, ~100 μCi per mouse) was 2.03 % ID/g. The “Stomach % ID/g Mean” value (30 min, ~100 μCi per mouse) was 1.71 % ID/g, the “Tumor % ID/g Mean” value (30 min, ~100 μCi per mouse) was 4.99 % ID/g and the “Bladder % ID/g” value (30 min, ~100 μCi per mouse) was 1.47 % ID/g and 2.50 % ID/g. For the same molecule, the “Blood % ID/g” value (30 min, ~100 μCi per mouse) was 9.03 % ID/g and 11.04 % ID/g, the “Brain % ID/g” value (30 min, ~100 μCi per mouse) was 0.24 % ID/g and 0.19 % ID/g and the “Fat % ID/g” value (30 min, ~100 μCi per mouse) was 0.36 % ID/g and 0.64 % ID/g. For the same molecule, the “Femur % ID/g” value (30 min, ~100 μCi per mouse) was 2.15 % ID/g and 2.91 % ID/g, the “Heart % ID/g” value (30 min, ~100 μCi per mouse) was 4.65 % ID/g and 4.52 % ID/g and the “Kidney % ID/g” value (30 min, ~100 μCi per mouse) was 2.62 % ID/g and 2.80 % ID/g. For the same molecule, the “Large intestine % ID/g” value (30 min, ~100 μCi per mouse) was 5.82 % ID/g and 1.74 % ID/g, the “Liver % ID/g” value (30 min, ~100 μCi per mouse) was 3.03 % ID/g and 3.36 % ID/g and the “Lung % ID/g” value (30 min, ~100 μCi per mouse) was 6.53 % ID/g and 5.82 % ID/g. The “Muscle % ID/g” value (30 min, ~100 μCi per mouse) was 2.07 % ID/g and 2.12 % ID/g, the “Pancreas % ID/g” value (30 min, ~100 μCi per mouse) was 6.54 % ID/g and 5.18 % ID/g and the “Salivery gland % ID/g” value (30 min, ~100 μCi per mouse) was 11.28 % ID/g and 16.41 % ID/g. The “Small intestine % ID/g” value (30 min, ~100 μCi per mouse) was 4.18 % ID/g and 4.54 % ID/g, the “Spleen % ID/g” value (30 min, ~100 μCi per mouse) was 2.06 % ID/g and 1.99 % ID/g and the “Stomach % ID/g” value (30 min, ~100 μCi per mouse) was 1.72 % ID/g and 1.71 % ID/g. For the same molecule, the “Tumor % ID/g” value (30 min, ~100 μCi per mouse) was 5.57 % ID/g and 4.40 % ID/g, the “Bladder % ID/g Mean” value (120 min, 20 μCi per mouse) was 1.66 % ID/g and the “Blood % ID/g Mean” value (120 min, 20 μCi per mouse) was 5.44 % ID/g. For the same molecule, the “Brain % ID/g Mean” value (120 min, 20 μCi per mouse) was 0.22 % ID/g, the “Fat % ID/g Mean” value (120 min, 20 μCi per mouse) was 0.56 % ID/g and the “Femur % ID/g Mean” value (120 min, 20 μCi per mouse) was 2.17 % ID/g. For the same molecule, the “Heart % ID/g Mean” value (120 min, 20 μCi per mouse) was 3.20 % ID/g, the “Kidney % ID/g Mean” value (120 min, 20 μCi per mouse) was 2.71 % ID/g and the “Large intestine % ID/g Mean” value (120 min, 20 μCi per mouse) was 1.08 % ID/g. For the same molecule, the “Liver % ID/g Mean” value (120 min, 20 μCi per mouse) was 2.33 % ID/g, the “Lung % ID/g Mean” value (120 min, 20 μCi per mouse) was 3.15 % ID/g and the “Muscle % ID/g Mean” value (120 min, 20 μCi per mouse) was 1.53 % ID/g. The “Pancreas % ID/g Mean” value (120 min, 20 μCi per mouse) was 3.98 % ID/g, the “Salivary gland % ID/g Mean” value (120 min, 20 μCi per mouse) was 7.20 % ID/g and the “Small intestine % ID/g Mean” value (120 min, 20 μCi per mouse) was 2.64 % ID/g. The “Spleen % ID/g Mean” value (120 min, 20 μCi per mouse) was 1.51 % ID/g, the “Stomach % ID/g Mean” value (120 min, 20 μCi per mouse) was 1.11 % ID/g and the “Tumor % ID/g Mean” value (120 min, 20 μCi per mouse) was 1.96 % ID/g. The “Bladder % ID/g” value (120 min, 20 μCi per mouse) was 0.97 % ID/g and 2.35 % ID/g, the “Blood % ID/g” value (120 min, 20 μCi per mouse) was 4.70 % ID/g and 6.19 % ID/g and the “Brain % ID/g” value (120 min, 20 μCi per mouse) was 0.32 % ID/g and 0.13 % ID/g. For the same molecule, the “Fat % ID/g” value (120 min, 20 μCi per mouse) was 0.74 % ID/g and 0.38 % ID/g, the “Femur % ID/g” value (120 min, 20 μCi per mouse) was 1.99 % ID/g and 2.35 % ID/g and the “Heart % ID/g” value (120 min, 20 μCi per mouse) was 3.20 % ID/g and 3.21 % ID/g. For the same molecule, the “Kidney % ID/g” value (120 min, 20 μCi per mouse) was 1.66 % ID/g and 3.77 % ID/g, the “Large intestine % ID/g” value (120 min, 20 μCi per mouse) was 0.85 % ID/g and 1.30 % ID/g and the “Liver % ID/g” value (120 min, 20 μCi per mouse) was 2.28 % ID/g and 2.43 % ID/g. For the same molecule, the “Lung % ID/g” value (120 min, 20 μCi per mouse) was 2.65 % ID/g and 3.65 % ID/g, the “Muscle % ID/g” value (120 min, 20 μCi per mouse) was 1.58 % ID/g and 1.47 % ID/g and the “Pancreas % ID/g” value (120 min, 20 μCi per mouse) was 3.00 % ID/g and 4.96 % ID/g. The “Salivery gland % ID/g” value (120 min, 20 μCi per mouse) was 6.20 % ID/g and 8.21 % ID/g, the “Small intestine % ID/g” value (120 min, 20 μCi per mouse) was 2.55 % ID/g and 2.72 % ID/g and the “Spleen % ID/g” value (120 min, 20 μCi per mouse) was 1.54 % ID/g and 1.49 % ID/g. The “Stomach % ID/g” value (120 min, 20 μCi per mouse) was 1.00 % ID/g and 1.23 % ID/g and the “Tumor % ID/g” value (120 min, 20 μCi per mouse) was 1.67 % ID/g and 2.25 % ID/g.
